Measured values from patent US20200009275A1, “PIGMENT-COUPLED MANNOSYL SERUM ALBUMIN COMPLEX AND LYMPH NODE-PROBING COMPOSITION COMPRISING SAME” (priority 2017, published 2020).

Tests used:
[1] = Absorption peak and molecular extinction coefficient of pigment-coupled MSA; type: physicochemical; conditions: for Wavelength (absorption peak): scan 350 nm to 850 nm
Procedure: The pigment-coupled MSA solution was loaded in a 96-well plate, which was scanned with visible light ranging between 350 nm and 850 nm to measure the absorbance at the peak of absorption spectrum using Varioskan Flash (Thermo Fisher Scientific Inc., Finland) spectrometer. The molecular extinction coefficient was measured by calculating the absorbance per 1 cm length according to Beer-Lambert law.

[2] = biological target: T1, MSA (Homo sapiens, UniProt P02768); experiment: TLC measurement of pigment not coupled to MSA; type: binding
T1 construct: purchased Green Cross Corp., Korea
Procedure: 2 ml of 200 mg/mL MSA was added thereto to prepare the reaction mixture in total volume of 3 mL. […]
Upon completion of the reaction, the amount of the pigment not coupled to MSA was measured by performing thin layer chromatography (TLC) with the pigment-coupled MSA hourly. At this time, methanol and methylene chloride (MeOH:MeCl2) mixture was used as a solvent and the results were quantitatively analyzed by multi-gauge 3.0 software using LAS3000 (Fuji Film).

T1 sequence (P02768 25-609): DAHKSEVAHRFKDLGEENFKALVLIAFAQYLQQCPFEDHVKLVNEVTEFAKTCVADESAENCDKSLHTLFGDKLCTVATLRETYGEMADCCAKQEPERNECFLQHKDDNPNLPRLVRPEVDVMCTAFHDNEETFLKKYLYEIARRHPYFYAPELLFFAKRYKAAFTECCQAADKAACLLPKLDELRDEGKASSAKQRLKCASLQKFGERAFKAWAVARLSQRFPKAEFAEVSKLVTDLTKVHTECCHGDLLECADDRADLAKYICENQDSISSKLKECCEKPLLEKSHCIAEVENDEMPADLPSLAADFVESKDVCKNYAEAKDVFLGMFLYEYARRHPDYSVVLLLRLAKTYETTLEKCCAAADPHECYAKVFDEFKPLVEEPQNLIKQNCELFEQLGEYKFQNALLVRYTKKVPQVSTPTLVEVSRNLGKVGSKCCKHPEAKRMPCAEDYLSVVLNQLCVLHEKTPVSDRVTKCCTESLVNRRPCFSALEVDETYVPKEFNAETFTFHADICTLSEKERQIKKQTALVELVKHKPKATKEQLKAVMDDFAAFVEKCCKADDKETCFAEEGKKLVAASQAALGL

Molecule	ε (molecular extinction coefficient) ([1]; at absorption peak, per 1 cm, Beer-Lambert law)	Wavelength (absorption peak) [1]	Percentage of pigment not coupled to MSA ([2]; 10 min)	Percentage of pigment not coupled to MSA ([2]; 30 min)	Percentage of pigment not coupled to MSA ([2]; 1 hr)	Percentage of pigment not coupled to MSA ([2]; 2 hr)	Percentage of pigment not coupled to MSA ([2]; 6 hr)	Percentage of pigment not coupled to MSA ([2]; 24 hr)	Binding of pigment to MSA (in words) ([2]; Table 2)	Binding of pigment to MSA (in words) ([2]; Table 2, listed as naphthol blue black)
Nc1c(N=Nc2ccc([N+](=O)[O-])cc2)c(S(=O)(=O)[O-])cc2cc(S(=O)(=O)[O-])c(N=Nc3ccccc3)c(O)c12.[Na+].[Na+] [NBB, naphthol blue black]	62222	620 nm	0.0 ± 0.0%	0.0 ± 0.0%	0.0 ± 0.0%	0.0 ± 0.0%	0.2 ± 0.3%	0.0 ± 0.0%	bind stably and strongly to MSA and high	stably bound
brilliant blue R	–	–	7.8 ± 0.5%	7.6 ± 0.8%	7.7 ± 0.9%	6.3 ± 0.5%	5.9 ± 0.6%	3.8 ± 0.6%	–	–
nitrazine yellow [NY]	–	560 nm	9.6 ± 0.5%	8.4 ± 0.5%	7.2 ± 0.4%	6.4 ± 0.4%	0.4 ± 0.6%	0.1 ± 0.2%	–	–
